The source of these data is patent US7728001B2 (priority 2004, dated 2010).

Read-outs that look alike come from different tables or passages of the source.

The test system of one data set is opioid receptors. Type of data set: biochemical.
Data set [1] concerns rhesus monkeys. Conditions: nonhuman primates, recent report; cited from earlier work.
Another data set deals with humans. The settings on record: cited from earlier work.
Data set [2] concerns the target serotonin 5-HT2A receptor (Homo sapiens, UniProt P28223). The settings on record: cited from earlier work.
In the next data set the target is κ receptors (Homo sapiens, UniProt P41145). As to the kind of experiment: biochemical. Type of data set: binding.
κ receptors, sequence (P41145 whole entry): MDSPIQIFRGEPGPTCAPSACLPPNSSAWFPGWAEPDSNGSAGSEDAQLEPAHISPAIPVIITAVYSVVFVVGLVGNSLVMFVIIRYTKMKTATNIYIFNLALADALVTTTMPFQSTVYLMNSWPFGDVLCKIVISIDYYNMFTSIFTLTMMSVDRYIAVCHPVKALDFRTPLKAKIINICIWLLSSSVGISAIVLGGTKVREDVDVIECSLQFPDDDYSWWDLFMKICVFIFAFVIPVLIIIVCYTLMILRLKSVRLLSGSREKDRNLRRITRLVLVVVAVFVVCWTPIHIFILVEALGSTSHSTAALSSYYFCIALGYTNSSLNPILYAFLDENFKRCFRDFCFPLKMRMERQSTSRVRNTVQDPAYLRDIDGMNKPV
Data set [3] concerns rhesus monkeys. As to the kind of experiment: behavioral / discriminative stimulus effects, generalization to U69,593. Type of data set: in vivo. On the set-up: generalization to U69,593: dose or concentration left out as unconfirmed. On the procedure:
In an effort to further understand the in vivo pharmacology of these derivatives, propionate 9 was evaluated for behavioral effects in nonhuman primates in a pilot study. […] Propionate 9 generalized to U69,593 in only one of two rhesus monkeys tested, up to the highest dose that could be administered ([…], s.c.).

The target in a further data set is μ receptors (Homo sapiens, UniProt P35372). As to the kind of experiment: opioid receptor binding affinity, [^125I]IOXY as radioligand (μ). Conditions: for Ki: [^125I]IOXY radioligand.
μ receptors, sequence (P35372 whole entry): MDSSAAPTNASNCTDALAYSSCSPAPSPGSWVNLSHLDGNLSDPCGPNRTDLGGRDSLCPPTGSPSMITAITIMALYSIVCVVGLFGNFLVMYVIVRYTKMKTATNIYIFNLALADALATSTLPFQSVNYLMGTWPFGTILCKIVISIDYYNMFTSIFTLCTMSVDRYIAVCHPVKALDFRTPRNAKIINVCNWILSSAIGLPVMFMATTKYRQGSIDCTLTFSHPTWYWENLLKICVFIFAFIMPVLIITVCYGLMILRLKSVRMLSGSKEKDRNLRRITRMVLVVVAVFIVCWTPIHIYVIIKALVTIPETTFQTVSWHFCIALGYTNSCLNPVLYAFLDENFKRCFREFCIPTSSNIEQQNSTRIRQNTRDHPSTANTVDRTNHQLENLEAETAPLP
In a further data set the target is δ receptors (Homo sapiens, UniProt P41143). As to the kind of experiment: biochemical. Type of data set: binding.
δ receptors, sequence (P41143 whole entry): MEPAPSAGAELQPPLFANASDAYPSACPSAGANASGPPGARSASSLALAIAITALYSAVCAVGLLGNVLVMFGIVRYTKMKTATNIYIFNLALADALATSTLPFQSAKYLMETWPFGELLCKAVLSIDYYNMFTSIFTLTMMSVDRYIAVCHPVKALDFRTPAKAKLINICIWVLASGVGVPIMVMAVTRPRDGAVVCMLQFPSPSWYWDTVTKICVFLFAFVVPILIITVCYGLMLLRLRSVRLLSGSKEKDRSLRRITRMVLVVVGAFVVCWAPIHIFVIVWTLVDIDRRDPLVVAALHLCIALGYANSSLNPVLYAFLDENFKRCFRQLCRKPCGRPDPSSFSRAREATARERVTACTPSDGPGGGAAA

serotonin 5-HT2A receptor, sequence (P28223 whole entry): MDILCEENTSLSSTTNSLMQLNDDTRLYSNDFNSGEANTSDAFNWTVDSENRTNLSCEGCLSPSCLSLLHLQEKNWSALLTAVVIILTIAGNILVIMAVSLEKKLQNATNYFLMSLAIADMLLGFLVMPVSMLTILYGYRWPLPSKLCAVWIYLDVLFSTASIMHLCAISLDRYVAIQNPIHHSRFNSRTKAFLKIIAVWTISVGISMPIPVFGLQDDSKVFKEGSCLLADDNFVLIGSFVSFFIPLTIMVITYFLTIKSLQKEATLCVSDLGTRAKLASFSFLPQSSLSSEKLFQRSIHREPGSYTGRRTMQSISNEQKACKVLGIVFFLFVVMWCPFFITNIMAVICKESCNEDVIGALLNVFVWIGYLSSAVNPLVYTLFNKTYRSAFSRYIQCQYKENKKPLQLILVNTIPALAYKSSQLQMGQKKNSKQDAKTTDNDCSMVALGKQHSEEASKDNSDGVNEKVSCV

Consider `COC(=O)[C@@H]1C[C@H](OC(C)=O)C(=O)[C@H]2[C@@]1(C)CC[C@H]1C(=O)O[C@H]([C@]3(O)[C@H](OC)O[C@H](OC)[C@H]3O)C[C@]21C`, for which the melting point was in the range of 272 to 274 °C.
Take `COC(=O)[C@@H]1C[C@H](OC(C)=O)C(=O)[C@H]2[C@@]1(C)CC[C@H]1C(=O)O[C@H]([C@]3(O)[C@@H](OC)O[C@@H](OC)[C@H]3O)C[C@]21C`: the melting point lay within 151 to 153 °C.
As for `COC(=O)[C@@H]1C[C@H](OC(C)=O)C(=O)[C@H]2[C@@]1(C)CC[C@H]1C(=O)O[C@H](c3ccoc3)C[C@]21C` [Compound 1, Salvinorin A], in the data set on opioid receptors ([^35S]GTPγS assay), the functional activity result is listed as “agonists”. Moreover, the discriminative stimulus effect result in the data set with rhesus monkeys [1] is reported as “discriminative stimulus effect similar to the high efficacy κ agonist U69,593”. Also, the “smoked dose producing profound hallucinations” value in the data set with humans is 200 to 500 µg. The “activity at the serotonin 5-HT2A receptor” value in data set [2] is given as “no activity”.
In the case of `CCC(=O)O[C@H]1C[C@@H](C(=O)OC)[C@]2(C)CC[C@H]3C(=O)O[C@H](c4ccoc4)C[C@]3(C)[C@H]2C1=O` [Compound 9, (2S,4aR,6aR,7R,9S,10aS,10bR)-9-(propionyloxy)-2-(3-furanyl)dodecahydro-6a,10b-dimethyl-4,10-dioxo-2H-naphtho[2,1-c]pyran-7-carboxylic acid methyl ester], the Ki on κ receptors (read-out: Ki at κ receptors) was 1.8 nM. The functional activity entry with opioid receptors is recorded as “agonists”. The behavioral effect entry in the data set on rhesus monkeys [3] (nonhuman primates, pilot study, preliminary results) is “partial κ agonist”. Besides, in the data set with rhesus monkeys [3] (rhesus monkeys, up to highest dose, s.c.), the “generalization to U69,593” value is recorded as “one of two”.
Regarding `COC(=O)[C@@H]1C[C@H](OC(=O)C(C)C)C(=O)[C@H]2[C@@]1(C)CC[C@H]1C(=O)O[C@H](c3ccoc3)C[C@]21C` [Compound 10, (2S,4aR,6aR,7R,9S,10aS,10bR)-9-(isobutyryloxy)-2-(3-furanyl)-dodecahydro-6a,10b-dimethyl-4,10-dioxo-2H-naphtho[2,1-c]pyran-7-carboxylic acid methyl ester], at κ receptors, affinity was put at a Ki of 2980 nM and the “fold reduction of affinity at κ receptors compared to 9” value was “approximately 10 fold”. Further, the Ki at κ receptors (read-out: Ki at κ receptors) came to 19 nM.
Regarding `C=C(C)C(=O)O[C@H]1C[C@@H](C(=O)OC)[C@]2(C)CC[C@H]3C(=O)O[C@H](c4ccoc4)C[C@]3(C)[C@H]2C1=O` [Compound 11, (2S,4aR,6aR,7R,9S,10aS,10bR)-9-(2-methylacryloyloxy)-2-(3-furanyl)-dodecahydro-6a,10b-dimethyl-4,10-dioxo-2H-naphtho[2,1-c]pyran-7-carboxylic acid methyl ester], at κ receptors, the Ki came out at 260 nM and the “fold increase in affinity, printed 'at κ receptors', compared to 10” value is given as around 11 fold. Also, the Ki on κ receptors (read-out: Ki at κ receptors) is 42 nM.
On to `COC(=O)C(=O)O[C@H]1C[C@@H](C(=O)OC)[C@]2(C)CC[C@H]3C(=O)O[C@H](c4ccoc4)C[C@]3(C)[C@H]2C1=O` [Compound 12, Oxalic acid methyl ester (2S,4aR,6aR,7R,9S,10aS,10bR)-7-carbomethoxy-2-(3-furanyl)dodecahydro-6a,10b-dimethyl-4,10-dioxo-2H-naphtho[2,1-c]pyran-9-yl ester], for which the “fold loss of affinity at κ receptors compared to 11” value at κ receptors is reported as 10 fold. Also, the inhibition constant (Ki) on κ receptors (read-out: Ki at κ receptors) amounted to 430 nM.
For `COC(=O)[C@@H]1C[C@H](OC(=O)c2ccccc2)C(=O)[C@H]2[C@@]1(C)CC[C@H]1C(=O)O[C@H](c3ccoc3)C[C@]21C` [Compound 13, (2S,4aR,6aR,7R,9S,10aS,10bR)-9-(benzoyloxy)-2-(3-furanyl)-dodecahydro-6a,10b-dimethyl-4,10-dioxo-2H-naphtho[2,1-c]pyran-7-carboxylic acid methyl ester], on κ receptors, the “fold loss/decrease in affinity at κ receptors compared to 1” value (“fold loss/decrease in affinity” for short) amounted to 47 fold. Further, the Ki on κ receptors (read-out: Ki at κ receptors) came to 90 nM; at μ receptors, 12 nM. Further, the “selectivity for μ opioid receptor” value at μ receptors is on record as “binds selectively to the μ opioid receptor”. For the same compound, the functional activity entry in the data set on opioid receptors was “agonists”.
With `COC(=O)[C@@H]1C[C@H](OC(=O)c2cccnc2)C(=O)[C@H]2[C@@]1(C)CC[C@H]1C(=O)O[C@H](c3ccoc3)C[C@]21C` [Compound 14, Nicotinic acid (2S,4aR,6aR,7R,9S,10aS,10bR)-7-carbomethoxy-2-(3-furanyl)dodecahydro-6a,10b-dimethyl-4,10-dioxo-2H-naphtho[2,1-c]pyran-9-yl ester], the inhibition constant Ki at κ receptors (read-out: Ki at κ receptors) came to 1930 nM; on μ receptors it was 73 nM. Moreover, the “fold decrease in affinity at μ receptors compared to 13” value at μ receptors (ratio of Ki vs. 13) is 21 fold.
With `COC(=O)[C@@H]1C[C@H](OS(C)(=O)=O)C(=O)[C@H]2[C@@]1(C)CC[C@H]1C(=O)O[C@H](c3ccoc3)C[C@]21C` [Compound 15, (2S,4aR,6aR,7R,9S,10aS,10bR)-9-(methanesulfonyloxy)-2-(3-furanyl)-dodecahydro-6a,10b-dimethyl-4,10-dioxo-2H-naphtho[2,1-c]pyran-7-carboxylic acid methyl ester], the Ki at κ receptors (read-out: Ki at κ receptors) stood at 2.3 nM. Also, the functional activity entry in the data set with opioid receptors is “agonists”.
For `COC(=O)[C@@H]1C[C@H](O[Si](C)(C)C)C(=O)[C@H]2[C@@]1(C)CC[C@H]1C(=O)O[C@H](c3ccoc3)C[C@]21C` [Compound 16, (2S,4aR,6aR,7R,9S,10aS,10bR)-9-(trimethylsilanyloxy)-2-(3-furanyl)-dodecahydro-6a,10b-dimethyl-4,10-dioxo-2H-naphtho[2,1-c]pyran-7-carboxylic acid methyl ester], the “fold loss/decrease in affinity” value at κ receptors is listed as 847 fold. For the same compound, at κ receptors (read-out: Ki at κ receptors), the inhibition constant Ki worked out at 1610 nM.
With `COC(=O)[C@@H]1C[C@H](O)[C@H](O)[C@H]2[C@@]1(C)CC[C@H]1C(=O)O[C@H](c3ccoc3)C[C@]21C` [Compound 18, (2S,4aR,6aR,7R,9S,10R,10aS,10bR)-9,10-(dihydroxy)-2-(3-furanyl)dodecahydro-6a,10b-dimethyl-4-oxo-2H-naphtho[2,1-c]pyran-7-carboxylic acid methyl ester], at μ receptors, the “affinity at μ receptors” value is “low affinity”. Also, at δ receptors, the “affinity at δ receptors” value is reported as “low affinity”.
As for `COC(=O)[C@@H]1C[C@H](O)[C@H](O)[C@@H]2[C@@]3(C)C[C@@H](c4ccoc4)OC(=O)[C@H]3CC[C@]21C` [Compound 19, (2S,4aS,6aR,7R,9S,10R,10aS,10bR)-9,10-(dihydroxy)-2-(3-furanyl)dodecahydro-6a,10b-dimethyl-4-oxo-2H-naphtho[2,1-c]pyran-7-carboxylic acid methyl ester], the Ki at κ receptors is around 10000 nM; on μ receptors, around 10000 nM; at δ receptors it was around 10 µM.
For `COC(=O)[C@@H]1C[C@H](OC(C)=O)[C@H](OC(C)=O)[C@H]2[C@@]1(C)CC[C@H]1C(=O)O[C@H](c3ccoc3)C[C@]21C` [Compound 20, (2S,4aR,6aR,7R,9S,10R,10aS,10bR)-9,10-(diacetoxy)-2-(3-furanyl)dodecahydro-6a,10b-dimethyl-4-oxo-2H-naphtho[2,1-c]pyran-7-carboxylic acid methyl ester], the “fold loss/decrease in affinity” value on κ receptors came out at 340 fold. Moreover, the Ki on κ receptors (read-out: Ki at κ receptors) was 650 nM.
`COC(=O)[C@@H]1C[C@H](OC(=N)C(Cl)(Cl)Cl)C(=O)[C@H]2[C@@]1(C)CC[C@H]1C(=O)O[C@H](c3ccoc3)C[C@]21C` [Compound 21, (2S,4aR,6aR,7R,9S,10aS,10bR)-9-(2,2,2-trichloroacetimidoyloxy)-2-(3-furanyl)-dodecahydro-6a,10b-dimethyl-4,10-dioxo-2H-naphtho[2,1-c]pyran-7-carboxylic acid methyl ester]: on κ receptors, the “fold loss/decrease in affinity” value amounted to 34 fold. Besides, the inhibitory constant (Ki) came to 64 nM on κ receptors (read-out: Ki at κ receptors) and 6.47 µM at δ receptors (read-out: Ki at δ receptors).
`COC(=O)[C@@H]1C[C@H](OC(=O)Nc2ccccc2)C(=O)[C@H]2[C@@]1(C)CC[C@H]1C(=O)O[C@H](c3ccoc3)C[C@]21C` [Compound 22, (2S,4aR,6aR,7R,9S,10aS,10bR)-9-(phenylcarbamoyloxy)-2-(3-furanyl)-dodecahydro-6a,10b-dimethyl-4,10-dioxo-2H-naphtho[2,1-c]pyran-7-carboxylic acid methyl ester]: the “fold loss/decrease in affinity” value on κ receptors was 49 fold. Also, the inhibition constant (Ki) at κ receptors (read-out: Ki at κ receptors) worked out at 93 nM; at μ receptors, 16 nM; on δ receptors (read-out: Ki at δ receptors), 0.23 µM.
Regarding `C=CCNC(=O)O[C@H]1C[C@@H](C(=O)OC)[C@]2(C)CC[C@H]3C(=O)O[C@H](c4ccoc4)C[C@]3(C)[C@H]2C1=O` [Compound 23, (2S,4aR,6aR,7R,9S,10aS,10bR)-9-(allylcarbamoyloxy)-2-(3-furanyl)-dodecahydro-6a,10b-dimethyl-4,10-dioxo-2H-naphtho[2,1-c]pyran-7-carboxylic acid methyl ester], on κ receptors, the “fold loss/decrease in affinity” value is on record as around 300 fold. For the same compound, on κ receptors (read-out: Ki at κ receptors), the Ki turned out to be 120 nM.
